This is an account of results in US20240317743A1, “Solid Forms of BCL-2 Inhibitors, Method of Preparation, and Use Thereof” (BeiGene, Ltd., priority 2021, published 2024).

In brackets after ≈: the same amount, converted by molar mass.

Common to all, as to assay type: physicochemical
The nature of data set [1]: DVS (Method A) water uptake / hygroscopicity. Particulars: 25° C./80% RH. The protocol:
DVS of the obtained forms in the present disclosure was measured via an SMS (Surface Measurement Systems) DVS Intrinsic, without special instructions (Method A). The relative humidity at 25° C. was calibrated against deliquescence point of LiCl, Mg(NO3)2 and KCl. Parameters for the DVS test are listed as follows. [table]

A short description of data set [2]: Solid form solubility, concentration by HPLC at 24 hours. The protocol:
The solubility of Compound 1 in different physical forms was tested in water, 0.1 N HCl, pH 4.5 acetate buffer and pH 6.8 phosphate buffer. At 24 hours of time point, the concentration of Compound 1 was detected by HPLC.

A short description of data set [3]: Long term and accelerated physical and chemical stability test, impurities by HPLC. Here is the method:
Long term and accelerated stability studies were conducted in different physical forms of Compound 1, by storing the samples at 25±2° C./60±5% RH and 40±2° C./75±5% RH conditions for up to 6 months. And, the content of the total impurities of each sample was tested by HPLC.

Data set [4] is described as follows: Physical stability: storage under humidity/temperature, form checked by XRPD. The protocol:
To evaluate the physicochemical stability, store 1˜3 mg of Forms B, S, M, R, F, H and N samples were stored under 25° C./60% RH or 40° C./75% RH conditions for one week (unsealed) or 80° C. condition for 24 hrs (sealed).

Data set [5] can be described thus: Solid form stability of Form B: slurry or shaking in acetone/H2O system at 50° C., XRPD. The protocol: Evaluation of solid form stability of Form B was performed in acetone/H2O system at 50° C. About 2 mg of Form B sample was used to slurry or shake in the acetone/H2O (1:9, v/v) and H2O solution (saturated by amorphous sample).
Data set [6] is described as follows: Storage at RT, form checked by XRPD overlay. Particulars: RT, ~3 days. The protocol: Form K was speculated as a methyl acetate solvate.
Thus, Form L was speculated as a metastable anhydrate/hydrate which could be de-solvated from the wet cake from the solvent system.
(peak) before decomposition (FIG. 16B). According to the integration of ^1H NMR result (FIG. 16C), the theoretical weight of chlorobenzene was calculated as 9.8%, which matched with the TGA weight loss. […] After heating the sample to 140° C., more diffraction peaks disappeared. Combined with the TGA, ^1H NMR data and heating experiment, Form P was speculated as a chlorobenzene solvate.

Usually solubility stands for the concentration that dissolves in the medium under given conditions.

Take `CC(C)c1ccccc1[C@@H]1CCCN1C1CC2(CCN(c3ccc(C(=O)NS(=O)(=O)c4ccc(NCC5CCC(C)(O)CC5)c([N+](=O)[O-])c4)c(Oc4cnc5[nH]ccc5c4)c3)CC2)C1` (stereo partly drawn) [Compound 1 amorphous, 2-((1H-pyrrolo[2,3-b]pyridin-5-yl)oxy)-N-((4-((((1r,4r)-4-hydroxy-4-methylcyclohexyl)methyl)amino)-3-nitrophenyl)sulfonyl)-4-(2-((S)-2-(2-isopropylphenyl)pyrrolidin-1-yl)-7-azaspiro[3.5]nonan-7-yl)benzamide]: the water uptake in data set [1] (listed as amorphous form) is reported as 1.8%. The solubility in data set [2] (0.1 N HCl) is 35.30 µg/mL (≈ 39.7 µM); in data set [2] (pH 4.5 acetate buffer) it was “no Compound 1 was detected”; in data set [2] (pH 6.8 phosphate buffer) it was “no Compound 1 was detected”; in data set [2] (water) it was “no Compound 1 was detected”. Further, the “change of chemical purity” value in data set [3] (25±2° C./60±5% RH and 40±2° C./75±5% RH, up to 6 months) was “reduced significantly”. Moreover, the entries for the “total content of impurities” value in data set [3] (after 6 months at 40±2° C./75±5% RH) and in data set [3] (before storage (initial)) were 4.2% and 2.10%, respectively.
On to `CC(C)c1ccccc1[C@@H]1CCCN1C1CC2(CCN(c3ccc(C(=O)NS(=O)(=O)c4ccc(NCC5CCC(C)(O)CC5)c([N+](=O)[O-])c4)c(Oc4cnc5[nH]ccc5c4)c3)CC2)C1` (stereo partly drawn) [Form B, 2-((1H-pyrrolo[2,3-b]pyridin-5-yl)oxy)-N-((4-((((1r,4r)-4-hydroxy-4-methylcyclohexyl)methyl)amino)-3-nitrophenyl)sulfonyl)-4-(2-((S)-2-(2-isopropylphenyl)pyrrolidin-1-yl)-7-azaspiro[3.5]nonan-7-yl)benzamide], for which, in data set [1], the hygroscopicity result is recorded as “slight hygroscopicity”. In data set [1], this molecule had a water uptake of 0.9%. The “form change (XRPD overlay)” value is recorded as “no form change” in data set [4] (25° C./60% RH, one week, unsealed); “no form change” in data set [4] (40° C./75% RH, one week, unsealed); “no form change” in data set [4] (80° C., sealed, 24 hrs). Besides, the “crystalline status (XRPD overlay)” value in data set [5] (shaking in H2O, about 4 hours) is reported as “no form change was observed”; in data set [5] (shaking in H2O, about 4 days), “no form change was observed”; in data set [5] (shaking in acetone/H2O (1:9, v/v), about 4 hours) it was “no form change was observed”; in data set [5] (shaking in acetone/H2O (1:9, v/v), about 4 days), “no form change was observed”; in data set [5] (slurrying in H2O, about 4 hrs) it was “no form change was observed”; in data set [5] (slurrying in H2O, about 4 days), “a decrease of crystallinity was observed”. Further, in data set [5] (slurrying in acetone/H2O (1:9, v/v), about 4 days), the “crystalline status (XRPD overlay)” value was “a decrease of crystallinity was observed”.
For the molecule `CC(C)c1ccccc1[C@@H]1CCCN1C1CC2(CCN(c3ccc(C(=O)NS(=O)(=O)c4ccc(NCC5CCC(C)(O)CC5)c([N+](=O)[O-])c4)c(Oc4cnc5[nH]ccc5c4)c3)CC2)C1` (stereo partly drawn) [Form T, 2-((1H-pyrrolo[2,3-b]pyridin-5-yl)oxy)-N-((4-((((1r,4r)-4-hydroxy-4-methylcyclohexyl)methyl)amino)-3-nitrophenyl)sulfonyl)-4-(2-((S)-2-(2-isopropylphenyl)pyrrolidin-1-yl)-7-azaspiro[3.5]nonan-7-yl)benzamide], the “form change on storage” value in data set [6] is “convert back to Form N”.
